According to PubChem BioAssay (NCI):
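Assay format: 96-well plates, 48-hour exposure. The concentration for full growth arrest is given as TGI.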 *1 amine or outer side, *2 acyl side, *3 side chain or, on linkers, in order; H or OH if unused. Where a SMILES comes first, the peptide text is derived from it. The star is where a group is joined. γGlu = O=C(O)[CH](CCC(=O)[*:2])N[*:1]; NHOH = ON*

Legend:
Test in all cases: NCI anticancer screen, dose series, 48 h
EKVX NSCLC = test system: EKVX NSCLC
KM12 colon = test system: KM12 colon
NCI-H226 lung = test system: NCI-H226 lung
NCI/ADR-RES ovarian = test system: NCI/ADR-RES ovarian
RPMI-8226 leukemia = test system: RPMI-8226 leukemia
SF-268 CNS = test system: SF-268 CNS
SF-539 CNS = test system: SF-539 CNS
SK-MEL-5 melanoma = test system: SK-MEL-5 melanoma
T-47D breast = test system: T-47D breast
UO-31 renal = test system: UO-31 renal

SMILES | TGI (EKVX NSCLC) | TGI (KM12 colon) | TGI (NCI-H226 lung) | TGI (NCI/ADR-RES ovarian) | TGI (RPMI-8226 leukemia) | TGI (SF-268 CNS) | TGI (SF-539 CNS) | TGI (SK-MEL-5 melanoma) | TGI (T-47D breast) | TGI (UO-31 renal)
N#C/C=C(/NC(=O)Nc1ccccc1)N1CCCC1 | > 97 µM | > 100 µM | > 65.9 µM | > 61.5 µM | > 100 µM | > 46.4 µM | > 65.7 µM | > 100 µM | > 100 µM | > 100 µM
CC(=O)Oc1ccc2c(c1)O/C(=C\c1ccc(N(C)C)cc1)C2=O | > 100 µM | > 100 µM | > 100 µM | > 100 µM | > 100 µM | > 100 µM | > 100 µM | > 100 µM | > 100 µM | > 100 µM
NC(CCC(=O)NC(CCC(=O)NO)C(=O)NCC(=O)O)C(=O)O (stereo not given) (γGlu-Glu(NHOH)-Gly-OH; configuration not given here) | > 100 µM | > 100 µM | > 100 µM | > 100 µM | > 100 µM | > 100 µM | > 100 µM | > 100 µM | > 100 µM | > 100 µM
CCCCCCc1cc2cc(C(=O)Nc3nc(C45CC6CC(CC(C6)C4)C5)cs3)c(=O)oc2cc1O | 51.4 µM | 32.6 µM | 44.8 µM | 80.5 µM | 39 µM | 63 µM | 38.6 µM | 24.7 µM | 38.1 µM | 67.6 µM
CSC(=Nc1ccccc1)c1c(C)[nH]n(-c2ccccc2)c1=O | > 100 µM | > 100 µM | > 100 µM | > 100 µM | > 100 µM | > 100 µM | > 100 µM | > 100 µM | > 100 µM | > 100 µM
Fc1ccc(/C=C2\COCC3=C2NC(=S)NC3c2ccc(F)cc2)cc1 (stereo not given) | 42.6 µM | 63.2 µM | 45.1 µM | 40 µM | 44.4 µM | 33.9 µM | 36.9 µM | 33.5 µM | 90.1 µM | 33.5 µM
CCOC(=O)N1CCC2(CC1)C[C@](Sc1ccccc1)(C(C)=O)[C@H](C)O2 | > 100 µM | > 100 µM | > 100 µM | > 100 µM | > 100 µM | > 100 µM | > 100 µM | > 100 µM | > 100 µM | > 100 µM
O=C1O/C(=C(\Br)c2ccc([N+](=O)[O-])cc2)c2ccccc21 | > 100 µM | > 100 µM | > 100 µM | > 100 µM | > 61.8 µM | > 100 µM | > 100 µM | > 100 µM | > 100 µM | > 100 µM
COC(=O)c1sc2nc(Nc3ccccc3)c(=Nc3ccccc3)sc2c1C | > 100 µM | > 100 µM | > 100 µM | > 100 µM | > 100 µM | > 100 µM | > 100 µM | > 100 µM | > 100 µM | > 100 µM
CC1=NN(c2ccccc2)C(=O)/C1=C1\SC(c2ccccc2)(c2ccccc2)c2ccccc21 | > 100 µM | > 100 µM | > 100 µM | > 100 µM | > 100 µM | > 100 µM | > 100 µM | > 100 µM | > 100 µM | > 100 µM
C[C@]12CCC(=O)C=C1CC[C@@H]1[C@@H]2CC[C@]2(C)C(=O)/C(=C/c3ccc([N+](=O)[O-])cc3)C[C@@H]12 | > 100 µM | > 100 µM | > 100 µM | > 100 µM | > 100 µM | > 100 µM | > 100 µM | > 100 µM | > 100 µM | > 100 µM
O=C1C(NS(=O)(=O)c2ccccc2)=C(n2ccnc2)C(=O)c2ccccc21 | > 100 µM | > 100 µM | > 100 µM | > 100 µM | > 100 µM | > 100 µM | > 100 µM | > 100 µM | > 100 µM | > 100 µM
CC(=O)N1N=C(c2ccccc2)NC(=O)C1c1cc(C)c(O)c(C)c1 (stereo not given) | 93.6 µM | > 100 µM | 49.7 µM | 47.7 µM | > 100 µM | 34.3 µM | 40.3 µM | 56.4 µM | 42 µM | 48.9 µM
COc1cc2ncnc(Nc3cccc(Br)c3)c2cc1OC | 31.9 µM | 16.1 µM | 18.5 µM | 23.9 µM | > 100 µM | > 89.6 µM | 17 µM | 5.67 µM | 48 µM | 33.6 µM
CN(C)N1C(=C(C#N)C#N)C(c2ccccc2)CC1C#N (stereo not given) | > 100 µM | > 100 µM | > 100 µM | > 100 µM | > 100 µM | > 100 µM | > 100 µM | > 100 µM | > 100 µM | > 100 µM
Fc1ccc(F)c(C=NC23CC4CC(CC(C4)C2)C3)c1 | > 10 µM | > 10 µM | > 10 µM | > 10 µM | > 10 µM | > 10 µM | > 10 µM | > 10 µM | > 10 µM | > 10 µM
CC1OC1C(=O)P(=O)(O)O (stereo not given) | > 100 µM | > 100 µM | > 100 µM | > 100 µM | > 100 µM | > 100 µM | > 100 µM | > 100 µM | > 100 µM | > 100 µM
